{"source": "patent US20050203000A1", "about": "“Use of benzyl alcohol, and other phenolic preservatives to reduce pain during intradermal injection” (priority 2003, published 2005)", "key": {"[1]": {"experiment": "Dermal irritancy of preservatives in intradermal formulations (Draize dermal irritation scoring)", "format": "in vivo, human", "details": "irritancy potential had been seen in animal models such as swine", "description": "Benzyl alcohol, m-cresol and other preservatives were previously thought to be deleterious for inclusion in ID formulations based on their potential for dermal irritancy measured in animal models such as swine (Draize Irritancy Scores, NB 00-8440-01). In humans, however, these effects are not observed and beneficial results are gained in the perception of reduced pain.\n(§1) Typically, each participating subject received a series of ‘treatments’ consisting of intradermal infusions or injections of either sterile unpreserved isotonic saline, or sterile bacteriostatic isotonic saline for injection in the anterior thigh using microneedle-based intradermal injection devices. Participants were asked to rate the pain immediately after the device was applied to the skin, and at the end of the injection/infusion procedure. In addition, injection sites were evaluated for irritation using the Draize dermal irritation scoring scale for erythema and edema, and for the presence of any other adverse skin effects, occurring at the time of injection or developing at a later time."}, "[2]": {"experiment": "Pain perception of intradermal injection/infusion, Gracely Box SL Scale (0-20), human clinical study", "format": "in vivo", "details": "recent clinical trials", "protocol": "A series of prospective, randomized, open label human clinical studies were conducted. The following inclusion criteria was typically used: • 18 years of age or older • In stable health status with no acute or severe illness • Willing to complete all study procedures • Available for designated study days\nas §1, with “time. […]” for “time.”\nPain was determined using a Gracely Box SL Scale (reference: Heft, Gracely and Dubner, Pain, 1980, 9:363-373). Pain scores were typically recorded after insertion of the intradermal delivery device, and upon complete intradermal instillation of the total saline dose. […]\nTypically, pain scale scores were analyzed by ANOVA using a linear-type model. […]"}}}
{"molecule": "OCc1ccccc1", "note": "[Benzyl alcohol]", "values": [{"measurement": "Dermal irritancy effects in humans", "setting": "[1]", "result": "not observed"}]}
{"molecule": "insulin", "values": [{"measurement": "Pain scores for intradermal delivery compared with preservative-free solutions", "setting": "[2]", "result": "significantly lower pain scores"}]}
{"molecule": "Cc1cccc(O)c1", "note": "[m-cresol]", "values": [{"measurement": "Dermal irritancy effects in humans", "setting": "[1]", "result": "not observed"}]}
